# Experimental data: ChEMBL document CHEMBL3390844, “Development of substituted 7-phenyl-4-aminobenzothieno[3,2-d] pyrimidines as potent LIMK1 inhibitors” (Medchemcomm, 2011)
# pIC50: −log10 of the molar value.
# Columns and labels:
# [1] = Partition coefficient, log D of the compound at pH 7.4 by HPLC analysis; format: physicochemical; details: octanol/water
# [2] = target: T1, Tyrosine-protein kinase JAK3 (Homo sapiens) (UniProt P52333); assay: Inhibition of JAK3 (unknown origin) at 1 uM
# T1 sequence (whole entry): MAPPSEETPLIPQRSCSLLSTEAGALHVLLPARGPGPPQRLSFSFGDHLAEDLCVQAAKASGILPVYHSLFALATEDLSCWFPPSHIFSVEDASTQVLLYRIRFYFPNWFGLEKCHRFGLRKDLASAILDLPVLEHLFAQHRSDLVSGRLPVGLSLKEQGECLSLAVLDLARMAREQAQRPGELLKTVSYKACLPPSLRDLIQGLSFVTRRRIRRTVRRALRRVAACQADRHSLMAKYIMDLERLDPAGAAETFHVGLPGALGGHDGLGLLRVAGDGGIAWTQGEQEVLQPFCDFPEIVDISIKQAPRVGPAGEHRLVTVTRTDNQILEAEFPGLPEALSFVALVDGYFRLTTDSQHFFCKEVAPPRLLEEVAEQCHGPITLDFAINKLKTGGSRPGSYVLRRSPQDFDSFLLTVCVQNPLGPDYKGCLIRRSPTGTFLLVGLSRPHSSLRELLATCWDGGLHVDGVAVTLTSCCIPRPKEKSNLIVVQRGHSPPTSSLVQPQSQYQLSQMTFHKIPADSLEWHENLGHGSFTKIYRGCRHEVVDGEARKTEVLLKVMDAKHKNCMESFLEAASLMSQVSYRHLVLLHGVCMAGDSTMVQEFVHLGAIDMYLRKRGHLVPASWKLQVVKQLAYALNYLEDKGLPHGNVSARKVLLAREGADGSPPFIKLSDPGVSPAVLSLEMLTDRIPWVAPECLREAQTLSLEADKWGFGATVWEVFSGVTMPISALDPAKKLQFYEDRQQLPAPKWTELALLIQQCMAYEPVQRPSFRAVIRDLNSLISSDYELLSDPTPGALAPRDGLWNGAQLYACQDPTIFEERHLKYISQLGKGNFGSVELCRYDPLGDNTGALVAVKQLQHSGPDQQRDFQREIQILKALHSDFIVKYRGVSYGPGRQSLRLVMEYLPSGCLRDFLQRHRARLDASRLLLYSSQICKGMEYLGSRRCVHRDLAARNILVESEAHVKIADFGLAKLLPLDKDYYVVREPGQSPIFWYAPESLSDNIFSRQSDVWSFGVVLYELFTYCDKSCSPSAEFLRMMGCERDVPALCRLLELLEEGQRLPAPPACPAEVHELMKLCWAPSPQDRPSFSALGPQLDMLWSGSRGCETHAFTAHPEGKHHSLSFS
# [3] = target: T2, LIM domain kinase 1 (Homo sapiens, UniProt P53667); assay: Inhibition of LIMK1 (unknown origin) assessed as ADP formation using cofilin-2 protein as substrate measured after 60 mins incubation with enzyme by Transcreener assay
# [4] = Solubility of the compound in phosphate buffer at pH 6.5 by nephelometry; format: physicochemical
# [5] = target: Serine/threonine-protein kinase PAK 4 (Homo sapiens) (UniProt O96013); assay: Inhibition of PAK4 (unknown origin) at 1 uM
# [6] = target: CYP3A4 (Homo sapiens, UniProt P08684); assay: Inhibition of CYP3A4 in human liver microsomes assessed as reduction in apparent rate of formation of metabolites using midazolam or testosterone as substrate at 20 uM by LC-MS analysis; format: ADME; details: probe midazolam or testosterone
# [7] = target: Tyrosine-protein kinase JAK1 (Homo sapiens) (UniProt P23458); assay: Inhibition of JAK1 (unknown origin) at 1 uM
# [8] = Plasma protein binding in human by LC-MS analysis; format: ADME, cell-free; details: read-out: PPB (converted)
# [9] = target: Proto-oncogene tyrosine-protein kinase Src (Homo sapiens) (UniProt P12931); assay: Inhibition of Src (unknown origin) at 1 uM
# [10] = target: T3, CYP1A2 (Homo sapiens, UniProt P05177); assay: Inhibition of CYP1A2 in human liver microsomes assessed as reduction in apparent rate of formation of metabolites using phenacetin as substrate at 20 uM by LC-MS analysis; format: ADME; details: probe phenacetin
# T3 sequence (P05177 whole entry): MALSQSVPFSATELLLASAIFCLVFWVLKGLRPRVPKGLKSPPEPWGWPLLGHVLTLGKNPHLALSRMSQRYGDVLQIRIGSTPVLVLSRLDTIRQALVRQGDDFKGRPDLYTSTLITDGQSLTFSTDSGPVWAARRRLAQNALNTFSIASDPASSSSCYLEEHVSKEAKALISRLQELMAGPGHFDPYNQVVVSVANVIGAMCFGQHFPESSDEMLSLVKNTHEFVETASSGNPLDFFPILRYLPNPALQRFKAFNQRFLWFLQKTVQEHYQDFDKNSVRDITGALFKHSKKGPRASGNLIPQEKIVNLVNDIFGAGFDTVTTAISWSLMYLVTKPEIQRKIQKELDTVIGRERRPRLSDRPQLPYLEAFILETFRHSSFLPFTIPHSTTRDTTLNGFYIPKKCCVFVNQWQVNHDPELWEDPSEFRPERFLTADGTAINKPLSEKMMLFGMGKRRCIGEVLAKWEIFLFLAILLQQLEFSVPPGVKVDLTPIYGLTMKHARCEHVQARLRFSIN
# [11] = target: hERG (KCNH2) (Homo sapiens, UniProt Q12809); assay: Inhibition of human ERG at 10 uM by fluorescence polarization assay
# [12] = target: Tyrosine-protein kinase Lck (Homo sapiens) (UniProt P06239); assay: Inhibition of Lck (unknown origin) at 1 uM
# [13] = target: Serine/threonine-protein kinase PAK 1 (Homo sapiens) (UniProt Q13153); assay: Inhibition of PAK1 (unknown origin) at 1 uM
# [14] = In vitro intrinsic clearance in human liver microsomes at 1 uM by LC-MS analysis; format: ADME; details: read-out: CLH
# [15] = target: T2, LIM domain kinase 1; assay: Inhibition of LIMK1-catalyzed cofilin phosphorylation in human ZR-75-1 cells; format: cell-based
# [16] = target: Rho-associated protein kinase 2 (Homo sapiens) (UniProt O75116); assay: Inhibition of ROCK2 (unknown origin) at 1 uM
# [17] = target: Tyrosine-protein kinase JAK2 (Homo sapiens) (UniProt O60674); assay: Inhibition of JAK2 (unknown origin) at 1 uM
# [18] = Solubility of the compound in 0.01 M HCl at pH 2 by nephelometry; format: physicochemical
# [19] = In vitro intrinsic clearance in mouse liver microsomes at 1 uM by LC-MS analysis; format: ADME; details: read-out: CLH
# [20] = target: T2, LIM domain kinase 1; assay: Inhibition of LIMK1 (unknown origin) assessed as remaining ATP level using cofilin-2 protein as substrate measured after 60 mins incubation with enzyme by KinaseGlo assay
# [21] = target: LIM domain kinase 2 (Homo sapiens, UniProt P53671); assay: Inhibition of LIMK2 (unknown origin)
# Sequence of LIM domain kinase 2 (P53671 whole entry, the tested form may be a part): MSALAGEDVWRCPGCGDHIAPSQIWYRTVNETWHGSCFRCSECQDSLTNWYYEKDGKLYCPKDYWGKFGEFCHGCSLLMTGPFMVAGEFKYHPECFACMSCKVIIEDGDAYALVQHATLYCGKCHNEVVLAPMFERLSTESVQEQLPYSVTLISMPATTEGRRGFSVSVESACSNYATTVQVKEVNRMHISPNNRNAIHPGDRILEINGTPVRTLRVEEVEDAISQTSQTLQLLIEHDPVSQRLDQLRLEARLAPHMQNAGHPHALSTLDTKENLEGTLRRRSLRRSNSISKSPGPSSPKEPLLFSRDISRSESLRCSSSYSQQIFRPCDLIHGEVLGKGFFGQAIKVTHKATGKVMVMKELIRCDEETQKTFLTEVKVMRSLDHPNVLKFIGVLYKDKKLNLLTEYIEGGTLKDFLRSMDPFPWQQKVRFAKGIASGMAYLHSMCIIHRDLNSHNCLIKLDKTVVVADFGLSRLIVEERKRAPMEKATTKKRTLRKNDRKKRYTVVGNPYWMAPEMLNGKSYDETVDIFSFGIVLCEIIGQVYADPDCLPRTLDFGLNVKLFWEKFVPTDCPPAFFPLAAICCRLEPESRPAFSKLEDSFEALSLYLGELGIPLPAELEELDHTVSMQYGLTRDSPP
# T2 sequence (P53667 whole entry, the tested form may be a part): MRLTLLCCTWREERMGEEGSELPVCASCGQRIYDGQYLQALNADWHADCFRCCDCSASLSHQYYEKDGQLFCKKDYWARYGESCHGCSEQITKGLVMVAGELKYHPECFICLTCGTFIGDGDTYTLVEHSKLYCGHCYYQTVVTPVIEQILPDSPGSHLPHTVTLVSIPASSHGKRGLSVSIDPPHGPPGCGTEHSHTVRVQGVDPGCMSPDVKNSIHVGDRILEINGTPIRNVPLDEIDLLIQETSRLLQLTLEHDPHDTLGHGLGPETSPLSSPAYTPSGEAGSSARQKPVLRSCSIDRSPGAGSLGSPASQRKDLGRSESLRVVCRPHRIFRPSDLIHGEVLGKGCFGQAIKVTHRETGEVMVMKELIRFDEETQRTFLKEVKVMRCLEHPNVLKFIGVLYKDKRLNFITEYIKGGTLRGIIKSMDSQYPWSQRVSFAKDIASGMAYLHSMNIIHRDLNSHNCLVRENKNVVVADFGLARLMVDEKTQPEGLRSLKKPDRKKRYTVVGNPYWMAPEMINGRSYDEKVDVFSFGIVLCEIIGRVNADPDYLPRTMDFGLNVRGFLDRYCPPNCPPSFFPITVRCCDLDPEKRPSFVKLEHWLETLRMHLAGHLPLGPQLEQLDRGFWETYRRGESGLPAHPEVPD
# Sequence of CYP3A4 (P08684 whole entry): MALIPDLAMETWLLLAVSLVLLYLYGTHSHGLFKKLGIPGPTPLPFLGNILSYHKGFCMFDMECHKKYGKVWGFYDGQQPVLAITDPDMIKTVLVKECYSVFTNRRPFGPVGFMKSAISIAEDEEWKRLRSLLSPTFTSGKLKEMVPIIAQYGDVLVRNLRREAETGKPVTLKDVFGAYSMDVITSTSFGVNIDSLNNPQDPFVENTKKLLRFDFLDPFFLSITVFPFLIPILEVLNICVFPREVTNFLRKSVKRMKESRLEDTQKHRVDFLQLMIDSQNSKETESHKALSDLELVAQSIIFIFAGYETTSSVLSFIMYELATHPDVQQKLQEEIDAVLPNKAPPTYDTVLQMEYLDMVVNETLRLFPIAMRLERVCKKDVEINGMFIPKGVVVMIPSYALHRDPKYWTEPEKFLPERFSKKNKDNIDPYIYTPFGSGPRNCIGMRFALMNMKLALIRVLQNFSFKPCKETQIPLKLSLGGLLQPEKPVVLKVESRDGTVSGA
# Sequence of Proto-oncogene tyrosine-protein kinase Src (Homo sapiens) (P12931 2-536 limits assumed): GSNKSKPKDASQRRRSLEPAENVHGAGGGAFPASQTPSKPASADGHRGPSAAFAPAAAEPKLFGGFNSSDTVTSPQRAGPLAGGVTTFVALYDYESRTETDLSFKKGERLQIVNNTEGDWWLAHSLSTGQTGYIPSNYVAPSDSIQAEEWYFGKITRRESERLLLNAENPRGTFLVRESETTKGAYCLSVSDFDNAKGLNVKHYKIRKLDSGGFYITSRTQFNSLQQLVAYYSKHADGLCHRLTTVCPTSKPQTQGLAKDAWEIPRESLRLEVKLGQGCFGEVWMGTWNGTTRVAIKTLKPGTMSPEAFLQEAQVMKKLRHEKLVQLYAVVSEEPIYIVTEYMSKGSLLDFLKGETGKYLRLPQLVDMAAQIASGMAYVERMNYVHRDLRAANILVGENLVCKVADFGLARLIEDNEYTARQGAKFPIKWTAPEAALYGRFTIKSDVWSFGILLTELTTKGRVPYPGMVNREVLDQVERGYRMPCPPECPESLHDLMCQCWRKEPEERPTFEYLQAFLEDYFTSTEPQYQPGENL
# Sequence of Tyrosine-protein kinase JAK2 (Homo sapiens) (O60674 whole entry): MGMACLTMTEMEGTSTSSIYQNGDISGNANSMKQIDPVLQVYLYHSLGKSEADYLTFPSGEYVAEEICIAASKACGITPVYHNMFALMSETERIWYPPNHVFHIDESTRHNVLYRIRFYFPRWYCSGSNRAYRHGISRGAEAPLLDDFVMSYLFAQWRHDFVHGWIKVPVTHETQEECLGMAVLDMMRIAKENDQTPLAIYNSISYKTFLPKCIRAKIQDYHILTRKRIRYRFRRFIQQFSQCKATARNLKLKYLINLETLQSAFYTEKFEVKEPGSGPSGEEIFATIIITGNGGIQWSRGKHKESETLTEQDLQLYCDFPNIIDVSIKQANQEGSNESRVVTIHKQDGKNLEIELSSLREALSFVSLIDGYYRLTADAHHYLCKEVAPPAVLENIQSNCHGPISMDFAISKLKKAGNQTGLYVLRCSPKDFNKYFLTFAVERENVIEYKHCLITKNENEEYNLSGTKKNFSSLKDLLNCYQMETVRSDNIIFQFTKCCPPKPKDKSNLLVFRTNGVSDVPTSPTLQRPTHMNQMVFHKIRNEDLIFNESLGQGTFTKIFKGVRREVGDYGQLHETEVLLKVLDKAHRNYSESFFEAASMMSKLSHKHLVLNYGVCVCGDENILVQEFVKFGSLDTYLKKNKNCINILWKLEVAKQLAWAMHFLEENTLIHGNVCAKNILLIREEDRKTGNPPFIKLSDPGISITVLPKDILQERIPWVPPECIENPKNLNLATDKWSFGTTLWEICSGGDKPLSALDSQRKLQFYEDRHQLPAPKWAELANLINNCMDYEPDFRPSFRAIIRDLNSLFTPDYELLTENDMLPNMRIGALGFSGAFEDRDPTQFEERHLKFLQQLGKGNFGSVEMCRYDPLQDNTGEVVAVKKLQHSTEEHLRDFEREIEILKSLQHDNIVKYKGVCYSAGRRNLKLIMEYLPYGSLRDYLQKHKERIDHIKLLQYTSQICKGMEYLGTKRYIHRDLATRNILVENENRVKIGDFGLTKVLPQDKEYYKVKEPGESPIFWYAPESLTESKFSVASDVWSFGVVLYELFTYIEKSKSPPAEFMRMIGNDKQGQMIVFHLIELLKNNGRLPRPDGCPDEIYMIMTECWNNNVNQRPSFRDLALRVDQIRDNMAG
# Sequence of Serine/threonine-protein kinase PAK 4 (Homo sapiens) (O96013 whole entry, looked up): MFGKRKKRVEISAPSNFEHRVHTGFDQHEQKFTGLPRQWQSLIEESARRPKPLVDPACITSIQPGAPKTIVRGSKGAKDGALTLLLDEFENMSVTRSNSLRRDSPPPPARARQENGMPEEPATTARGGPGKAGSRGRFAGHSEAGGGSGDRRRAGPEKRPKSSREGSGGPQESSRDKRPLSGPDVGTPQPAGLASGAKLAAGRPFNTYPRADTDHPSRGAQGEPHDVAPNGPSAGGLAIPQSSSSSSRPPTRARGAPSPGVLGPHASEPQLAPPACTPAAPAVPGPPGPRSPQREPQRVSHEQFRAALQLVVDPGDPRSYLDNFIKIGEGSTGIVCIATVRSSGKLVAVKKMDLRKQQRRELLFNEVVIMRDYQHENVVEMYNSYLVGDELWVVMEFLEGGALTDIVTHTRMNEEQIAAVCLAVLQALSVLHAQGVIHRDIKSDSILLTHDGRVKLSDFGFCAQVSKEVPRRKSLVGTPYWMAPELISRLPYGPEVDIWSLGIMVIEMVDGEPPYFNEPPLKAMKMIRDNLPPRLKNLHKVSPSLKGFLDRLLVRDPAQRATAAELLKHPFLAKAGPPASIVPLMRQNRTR
# Sequence of Tyrosine-protein kinase Lck (Homo sapiens) (P06239 2-509 limits assumed): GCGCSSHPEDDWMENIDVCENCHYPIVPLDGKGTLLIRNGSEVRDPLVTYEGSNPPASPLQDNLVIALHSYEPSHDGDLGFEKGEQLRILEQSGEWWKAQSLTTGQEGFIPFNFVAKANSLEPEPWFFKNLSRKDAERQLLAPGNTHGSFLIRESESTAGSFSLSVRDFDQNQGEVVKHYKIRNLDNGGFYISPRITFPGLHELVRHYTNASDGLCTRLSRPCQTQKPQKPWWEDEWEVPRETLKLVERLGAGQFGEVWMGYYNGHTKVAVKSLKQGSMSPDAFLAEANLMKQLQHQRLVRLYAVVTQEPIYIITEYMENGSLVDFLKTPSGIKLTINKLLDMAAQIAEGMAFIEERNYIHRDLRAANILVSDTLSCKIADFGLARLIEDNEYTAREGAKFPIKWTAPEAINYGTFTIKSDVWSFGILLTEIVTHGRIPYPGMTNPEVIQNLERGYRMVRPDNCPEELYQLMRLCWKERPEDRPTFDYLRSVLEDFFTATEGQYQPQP
smiles,measurement,setting,value
Nc1ncnc2c1sc1cc(-c3cccc(C(=O)NCC(=O)N4CCOCC4)c3)ccc12,logD,[1],2.1
same,inhibition,[2],65%
same,pIC50,[3],7.09
same,solubility kinetic,[4],6.3 µg/mL
same,inhibition,[5],0%
same,inhibition at 20 µM,[6],70%
same,inhibition,[7],31%
same,fraction unbound,[8],0.053
same,inhibition,[9],45%
same,inhibition at 20 µM,[10],17%
same,inhibition at 10 µM,[11],0%
same,inhibition,[12],97%
same,inhibition,[13],23%
same,microsomal CLint at 1 µM,[14],68 µL/min/mg
same,pIC50,[15],5.85
same,inhibition,[16],18%
same,inhibition,[17],97%
same,solubility kinetic,[18],50 µg/mL
same,microsomal CLint at 1 µM,[19],< 6 µL/min/mg
Nc1ncnc2c1sc1cc(-c3ccc(O)cc3)ccc12,pIC50,[20],6.57
CCNC(=O)Nc1ncc(-c2cc(-c3c(C)cc(OC)cc3C)nc(-c3cnccn3)n2)s1,logD,[1],3
same,pIC50,[3],7.27
same,solubility kinetic,[4],1.6 µg/mL
same,pIC50,[21],6.16
same,microsomal CLint at 1 µM,[14],< 5 µL/min/mg
same,solubility kinetic,[18],1.6 µg/mL
same,microsomal CLint at 1 µM,[19],10 µL/min/mg
CS(=O)(=O)Nc1ccc(-c2ccc3c(c2)sc2c(N)ncnc23)cc1,pIC50,[20],6.61
Nc1ncnc2c1sc1cc(-c3cccc(C(=O)N4CCOCC4)c3)ccc12,pIC50,[3],< 6.00
Cn1c2cc(-c3ccc(O)cc3)ccc2c2ncnc(N)c21,pIC50,[3],6.24
Cn1c2cc(-c3ccccc3)ccc2c2ncnc(N)c21,logD,[1],3.4
same,solubility kinetic,[4],3.1 µg/mL
same,microsomal CLint at 1 µM,[14],70 µL/min/mg
same,solubility kinetic,[18],12.5 µg/mL
same,microsomal CLint at 1 µM,[19],572 µL/min/mg
COc1ccc(-c2ccc3c(c2)sc2c(N)ncnc23)cc1,pIC50,[20],6.69
CCNC(=O)Nc1cccc(-c2ccc3c(c2)sc2c(N)ncnc23)c1,logD,[1],2.4
same,pIC50,[3],7.06
same,solubility kinetic,[4],1.6 µg/mL
same,pIC50,[21],6.79
same,microsomal CLint at 1 µM,[14],24 µL/min/mg
same,pIC50,[15],< 4.52
same,solubility kinetic,[18],12.5 µg/mL
same,microsomal CLint at 1 µM,[19],68 µL/min/mg
C[C@@H](NC(=O)c1cccc(-c2ccc3c(c2)sc2c(N)ncnc23)c1)C(N)=O,pIC50,[3],6.53
Nc1ncnc2c1sc1cc(-c3ccccc3O)ccc12,pIC50,[20],6.59
CC(=O)Nc1cccc(-c2ccc3c(c2)sc2c(N)ncnc23)c1,pIC50,[20],6.40
Nc1ncnc2c1sc1cc(-c3cccc(NC=O)c3)ccc12,pIC50,[20],7.26
same,pIC50,[3],7.26
CC(C)NC(=O)Nc1cccc(-c2ccc3c(c2)sc2c(N)ncnc23)c1,pIC50,[3],7.11
Nc1ccccc1-c1ccc2c(c1)sc1c(N)ncnc12,pIC50,[20],6.51
CN1CCN(CCNC(=O)Nc2cccc(-c3ccc4c(c3)sc3c(N)ncnc34)c2)CC1,pIC50,[3],6.65
Nc1ncnc2c1sc1cc(-c3cccc(Cl)c3)ccc12,pIC50,[20],6.70
Nc1ncnc2c1sc1cc(-c3ccc(-c4nn[nH]n4)cc3)ccc12,pIC50,[20],6.90
Nc1ncnc2c1sc1cc(-c3cccc(CO)c3)ccc12,pIC50,[20],6.89
Nc1ncnc2c1sc1cc(-c3ccc(CO)cc3)ccc12,pIC50,[20],6.79
Nc1ncnc2c1sc1cc(-c3cccc(O)c3)ccc12,pIC50,[20],6.64
NC(=O)c1ccc(-c2ccc3c(c2)sc2c(N)ncnc23)cc1,pIC50,[20],6.81
COc1cccc(-c2ccc3c(c2)sc2c(N)ncnc23)c1,pIC50,[20],6.83
